# Tests used:
# P19 neurons [1] = assay type: cell-based; settings: for Protection against oxidative stress caused by hydrogen peroxide: assayed at 0.5× suboptimal concentration, 0 to 10 mM H2O2, 30 min
# Method: Culture and neuronal differentiation of P19 embryonal carcinoma cells were done according to the procedures of Jeannotte et al. (1997) with the following modifications for microscale adaptation of cultures to 96-well plates: cell aggregates obtained at day 4 of the treatment of P19 cells with retinoic acid were trypsinized with 0.025% trypsin-1 mM EDTA in PBS and subjected to mechanical passages to obtain individual cells which were seeded in gelatin-precoated microwells at a density of 0.7-1×10^5 cells per well. The newly seeded cells (neurons) were cultured in supplemented Neurobasal medium (Neurobasal® containing 0.5 mM L-glutamine and 0.5% B27 supplement) until exposure to oxidative conditions at day 7. Because this defined serum-free medium sustains growth of P19 neurons (Yao et al., 1995) but discourages the proliferation of fibroblasts, another cell derivative of the differentiation of P19 cells with retinoic acid (McBurney, 1993; Jeannotte et al., 1997), the cell populations in microwells were composed mostly of neurons (≦95%).
# The prooxidant systems tested with P19 neurons were XA/XAO, H2O2, and H2O2/Fe^+2. Before neurons were exposed to either one of these systems, they were carefully washed with PBS and then incubated at 37° C., in an atmosphere of 95% ambient air and 5% CO2, and in the specific conditions of each system, as follows: i) from 0 to 90 min in the presence of PBS containing 500 μM XA and 50 mU/ml XAO, with the enzyme added last to start the reaction; ii) for 30 min in the presence of PBS containing 0 to 10 mM H2O2 with peroxide added last; and iii) for 30 min in the presence of PBS containing 0 to 10 mM H2O2 plus 50 μM FeCl2, with peroxide added last. Conditions were initially taken from Cini et al. (1994) for XA/XAO, from Desagher et al. (1996) for H2O2, and from Takemura et al. (1994) for H2O2/Fe^+2 systems respectively, and adapted to produce dose- or time-dependent cell mortality in P19 neurons. The first studies done with the H2O2/Fe^2+ system included the addition of 500 μM ascorbic acid; however, since responses of P19 neurons were similar whether or not ascorbic acid was present, this vitamin was omitted in subsequent experiments.
# When TRIAD or its components were tested for their antioxidant action, they were administered to cells just prior the addition of XAO or H2O2. After incubation of cells under oxidative conditions, the prooxidant medium was removed and replaced with 200 μl of supplemented Neurobasal-minus AO (Neurobasal® containing L-glutamine and the B27-minus AO supplement). B27-minus AO is a version of B27 supplement sold by Gibco-BRL from which normally present antioxidants (AO=vitamin E, catalase, SOD and GSH) have been removed. Cells were incubated in this Neurobasal-minus AO medium for 16 h, at 37° C., 5% CO2, and for a further 7 h in the same medium but in the presence of Alamar Blue for viability measurement.
# (§1) Fifteen (15) μl Alamar Blue was added to the culture medium of each well (200 μl) and incubation resumed for 7 h at 37° C., 5% CO2. A 180-μl aliquot of each culture medium was read by fluorescence using a wavelength of 544 nm for excitation and of 590 nm for emission; fluorescence increases upon reduction of the dye by metabolic activity of viable cells. Fluorescence determinations were done with a fluorimeter adapted to read microplates. Viability is reported as %, comparing the fluorescence units obtained for cells exposed to oxidative conditions to those of control (non-exposed) cells.
# [2] = In vitro antioxidant capacity: inhibition of DPD oxidation by H2O2, in absence of cells
# Method: Oxidation of N,N-diethyl-p-phenylenediamine (DPD) by a prooxidant system was used as a general reporter of the amount of ROS generated by that system (Anonymous, 1985; Chahine et al., 1991). Antioxidant capacity of preparations of TRIAD (or of its components) was defined as the ability to inhibit the oxidation of DPD by prooxidants.
# To estimate the antioxidant capacity of TRIAD preparations in the prooxidant conditions used with P19 neurons, DPD was added to a final concentration of 32 mM to 200 μl of each prooxidant system described above (see section 2.4) and incubated for the times tested with the cells. At the end of incubation, the amount of oxidized DPD was determined at 560 nm using a spectrophotometer adapted to microscale measurement.
# P19 neurons [3] = experiment: Protection of P19 neurons exposed to XA/XAO mediated oxidative stress (Alamar Blue viability); assay type: cell-based; settings: 1× concentration
# Method: Culture and neuronal differentiation of P19 embryonal carcinoma cells were done according to the procedures of Jeannotte et al. (1997) with the following modifications for microscale adaptation of cultures to 96-well plates: cell aggregates obtained at day 4 of the treatment of P19 cells with retinoic acid were trypsinized with 0.025% trypsin-1 mM EDTA in PBS and subjected to mechanical passages to obtain individual cells which were seeded in gelatin-precoated microwells at a density of 0.7-1×10^5 cells per well. […]
# Another protocol was also tested for XA/XAO system to generate a milder oxidative stress. […] At end of stress, PBS was changed for Neurobasal-minus AO medium and cells were incubated for 7 h, readily in the presence of Alamar Blue, for viability measurement.
# as §1
structure (smiles),measurement,setting,value
"OO [hydrogen peroxide, reference compound]",LD50,"P19 neurons [1]; mouse, 30 min",0.3 mM
same,Cell mortality,"P19 neurons [1]; mouse, 30 min, 1 mM",approximately 70%
"CC(=O)C(=O)[O-].[Na+] [pyruvate, sodium pyruvate]",Inhibition of the oxidation of DPD by H2O2,[2],substantial although not total antioxidant effect
same,Protection against neuronal death caused by XA/XAO,"P19 neurons [3]; 500 μM XA, 50 mU/mL XAO, 0-90 min",protected only slightly less than TRIAD 1×
same,Protective effect against XA/XAO,P19 neurons [3]; from 30 to 90 min of incubation with XA/XAO,remained stable
same,Contribution to TRIAD protective effect,P19 neurons [1]; H2O2/Fe2+ prooxidant system,contributed for most of TRIAD protective effect
same,Protection against oxidative stress caused by hydrogen peroxide,P19 neurons [1],substantial and stable protection up to 10 mM H2O2
same,Share of the protective effect of TRIAD,P19 neurons [1]; at low hydrogen peroxide concentrations,half
same,Contribution to the neuroprotective action of TRIAD against H2O2-induced injury,P19 neurons [1]; cultured neurons,60%
"Cc1c(C)c2c(c(C)c1O)CC[C@@](C)(CCC[C@H](C)CCC[C@H](C)CCCC(C)C)O2 [vitamin E, α-tocopherol]",Protection against oxidative stress caused by hydrogen peroxide,P19 neurons [1],did not provide protection

# — US6858646B2, “Neuroprotective composition and uses thereof” (Universite du Quebec a Montreal, priority 1999, dated 2005)
